In US6071913A, “Angiotensin II receptor antagonistic 1,2,4-triazin-5-one derivatives” (Development Center for Biotechnology, priority 1997, dated 2000):
pIC50: −log10 of the molar value.

The compounds below were run against T1, Angiotensin II Type I Receptor (Homo sapiens, UniProt P30556) (assay: Binding affinity to Angiotensin II receptor ([125I]-Sar1,Ile8-Angiotensin II radioligand, Angiotensin II Type I Receptor Kit NED-014)). Settings: concentration of compound corresponding to 50% inhibition; EBDA software, inhibition at 7 different concentrations; 3 hours incubation; read-out: IC50.
T1 construct: purchased NEN Research Products NED-014
T1 sequence (P30556 1-359): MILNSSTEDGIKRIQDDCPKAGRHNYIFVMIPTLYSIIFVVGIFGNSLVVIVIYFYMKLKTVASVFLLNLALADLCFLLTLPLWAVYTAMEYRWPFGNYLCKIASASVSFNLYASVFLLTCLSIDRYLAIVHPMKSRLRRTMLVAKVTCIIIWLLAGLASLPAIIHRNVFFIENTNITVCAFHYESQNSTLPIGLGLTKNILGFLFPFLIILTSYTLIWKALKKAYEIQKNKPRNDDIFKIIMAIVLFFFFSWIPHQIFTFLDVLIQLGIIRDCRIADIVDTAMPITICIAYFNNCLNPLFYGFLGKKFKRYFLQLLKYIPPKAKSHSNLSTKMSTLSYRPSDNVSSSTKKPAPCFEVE
Procedure: The binding affinity of the compounds of the above Examples I to IX to angiotensin II receptor was tested. The procedures and results are as follows:
Assay for the Binding Affinity to Angiotensin II Receptor
The antagonistic activity of angiotensin II receptor was assayed by Angiotensin II Type I Receptor Kit (NED-014 NENQUEST Drug Discovery System, NEN Research Products, Massachusettes, USA). The kit comprises Angiotensin II Type I Receptor Concentrate, radioligand [^125 I]-Sar^1,Ile^8 -Angiotensin II Concentrate (5 Ci), Standard Concentrate (DuP 753, […]), Diluent Concentrate, and Filter-Soak Concentrate. In accordance with the manual of
NED-014 kit, the Radioligand Concentrate, Receptor Concentrate and Filter-Soak Concentrate were diluted with deionized water, and stored under suitable temperatures (-70° C. or ambient temperature).
1. Filter Device: Hoefer FH 224 V, Hoefer Scientific Instruments Inc., California, USA; Vacuum pressure=15 in. Hg.
2. γ-Counter: Beckman 5500, Beckman Instruments Inc., […]., USA.
The reagents were thawed on ice on the day of assays. Two sets of tubes, each with two tubes, were used, one for non-specific binding (NSB) and the other for total binding (TB). A series of standard solutions (with the final concentrations of 0.5, 1, 2, 5, 10, 20, 50 and 100 nM) were prepared. The tested compounds were dissolved and diluted to 500 nM for preliminary screening. […] To the NSB tubes were added 25 μL Standard Concentrate solutions, to the TB tubes were added 25 μL Diluent Concentration, and to other tubes were added 25 μL the solutions of tested compounds. Then, 25 μL radioligand were added to each tube (including the two tubes for total counts, TC). The two TC tubes were used later for the determination of the dosage of radioligand added to each tube. To the rest tubes, 200 μL Receptor Concentration solutions were added. The tubes were allowed to stand for 3 hours to reach equibilium completely. Filter papers (Sigma Catalog No. 1822024) were soaked in the Filter-Soak solution, and placed in the filter device. The contents in the tubes were poured onto the filter papers, and washed with saline twice. The slightly dry filter papers were placed into the γ-counter and counted with two minutes counter.
The data are expressed as counts per minute (CPM). Net CPM for Specific Binding of standards or tested compounds is defined as the CPM thereof minus that of NSP and calculated by equation 1:
CPMnet =CPMtested compounds or standard -CPMnon-specific
With the above equation, the Net CPM for Specific Binding of tested compounds and standards can be obtained.
Inhibition (% B/B0) is defined as the net CPM for Specific Binding over that of standard at 0 concentration and calculated by equation 2:
Inhibition (% B/B0) of tested compound=CPMnet of standard at 0
IC50 is defined as the concentration of compound corresponding 50% inhibition. IC50 of tested compounds can be obtained with EBDA software by calculating the inhibition (% B/B0) of the tested compounds at 7 different concentrations. In addition, as the binding activity of a series of compounds is correlated with receptors, IC50 of the tested compounds can also be obtained by equation 3 established from known IC50 and inhibition (% B/B0) of the series compounds: […]

| Compound | pIC50 |
| --- | --- |
| CCCCc1nc(=O)c(-c2ccccc2)nn1Cc1ccc(-c2ccccc2-c2nnn[nH]2)cc1 [N, 6-phenyl-3-butyl-5-oxo-2-[[2'-(1H-tetrazol-5-yl)biphenyl-4-yl]methyl]-1,2,4-triazine] | 6.47 |
| CCCCc1nnc(CCc2ccccc2)c(=O)n1Cc1ccc(-c2ccccc2-c2nnn[nH]2)cc1 [T, 6-(2'-phenylethyl)-3-butyl-5-oxo-4-[[2'-(1H-tetrazol-5-yl)biphenyl-4-yl]methyl]-1,2,4-triazine] | 7.26 |
| CCCCc1nc(=O)c(CCc2ccccc2)nn1Cc1ccc(-c2ccccc2-c2nnn[nH]2)cc1 [S, 6-(2'-phenylethyl)-3-butyl-5-oxo-2-[[2'-(1H-tetrazol-5-yl)biphenyl-4-yl]methyl]-1,2,4-triazine] | 7.17 |

Same assay, conditions: marked * Calculated; read-out: IC50 (*Calculated)

| Compound | pIC50 |
| --- | --- |
| CCCCc1nnc(-c2ccccc2)c(=O)n1Cc1ccc(-c2ccccc2-c2nnn[nH]2)cc1 [O, 6-phenyl-3-butyl-5-oxo-4-[[2'-(1H-tetrazol-5-yl)biphenyl-4-yl]methyl]-1,2,4-triazine] | 7.20 |
| CCCCc1nnc(C)c(=O)n1Cc1ccc(-c2ccccc2-c2nnn[nH]2)cc1 [L, 6-methyl-3-butyl-5-oxo-4-[[2'-(1H-tetrazol-5-yl)biphenyl-4yl]methyl]-1,2,4-triazine] | 6.51 |
| CCCCc1nc(Cl)c(CCc2ccccc2)c(=O)n1Cc1ccc(-c2ccccc2-c2nnn[nH]2)cc1 [V, 2-butyl-5-(2'-phenylethyl)-6-chloro-3-[[2'-(1H-tetrazol-5-yl)biphenyl-4-yl]methyl]-4(3H)-pyrimidinone] | 7.14 |
